Test results reported in patent US20240308995A1, “O-GLYCOPROTEIN-2-ACETAMIDO-2-DEOXY-3-D-GLUCOPYRANOSIDASE INHIBITORS” (BIOGEN MA INC., priority 2018, published 2024).

Columns and labels:
[1] = system: MDR1-MDCK cell monolayers; assay: MDR1-MDCK Efflux Ratio Assay; format: in vitro ADME; conditions: MDR1-MDCK cells, 2 hr, pH 7.4
In short: (§1)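 Bidirectional (apical↔basolateral) transport across confluent MDR1-MDCK monolayers in HBSS/10 mM HEPES pH 7.4, receiver buffer with 1% BSA; 2 hr at 37° C, 5% CO2. Donor sampled at 0 and 120 min, receiver at 120 min, quantified by LC-MS/MS in triplicate. Papp, efflux ratio and percent recovery calculated.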

[2] = biological target: Recombinant full length human OGA enzyme (Homo sapiens (Human), UniProt O60502); assay: OGA Enzyme Inhibition Biochemical Assay; conditions: 1 nM OGA, 100 μM 4-MUGlcNAc, pH 6.4
Recombinant full length human OGA enzyme, sequence (O60502 whole entry): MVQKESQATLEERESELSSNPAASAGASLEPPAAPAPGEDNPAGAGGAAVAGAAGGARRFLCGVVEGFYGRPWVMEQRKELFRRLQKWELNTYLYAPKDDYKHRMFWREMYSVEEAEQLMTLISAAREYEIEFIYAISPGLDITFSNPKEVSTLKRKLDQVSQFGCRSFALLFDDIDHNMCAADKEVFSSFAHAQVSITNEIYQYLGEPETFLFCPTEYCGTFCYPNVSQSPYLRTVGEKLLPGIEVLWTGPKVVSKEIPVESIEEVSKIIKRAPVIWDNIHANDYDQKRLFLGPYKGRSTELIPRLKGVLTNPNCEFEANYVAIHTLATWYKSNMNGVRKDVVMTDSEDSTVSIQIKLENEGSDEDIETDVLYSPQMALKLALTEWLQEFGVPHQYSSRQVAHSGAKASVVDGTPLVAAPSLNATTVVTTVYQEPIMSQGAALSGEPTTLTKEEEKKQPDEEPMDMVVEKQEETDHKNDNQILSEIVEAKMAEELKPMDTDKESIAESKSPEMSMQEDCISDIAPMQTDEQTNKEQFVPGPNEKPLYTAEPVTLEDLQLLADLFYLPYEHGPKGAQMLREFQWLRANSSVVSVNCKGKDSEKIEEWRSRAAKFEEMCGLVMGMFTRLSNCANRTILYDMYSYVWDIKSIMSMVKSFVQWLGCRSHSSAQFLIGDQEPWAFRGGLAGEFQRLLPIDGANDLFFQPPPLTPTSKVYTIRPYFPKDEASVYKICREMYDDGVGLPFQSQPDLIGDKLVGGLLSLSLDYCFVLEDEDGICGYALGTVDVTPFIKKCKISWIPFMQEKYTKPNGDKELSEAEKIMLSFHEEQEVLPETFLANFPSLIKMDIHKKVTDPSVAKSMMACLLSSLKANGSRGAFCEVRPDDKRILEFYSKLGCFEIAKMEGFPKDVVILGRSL
In short: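 Full-length recombinant human OGA with fluorogenic 4-MUGlcNAc in McIlvaine buffer pH 6.4, 0.01% BSA; 90 min at room temperature, glycine pH 10 quench, fluorescence Ex 355/Em 460 nm. 10-point, 4-fold dilution from 20 μM; 4-parameter variable-slope fit.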

[3] = biological target: OGA (S400 O-GLCNAC), HEK-293T cells transfected with Tau-V5 (Homo sapiens (Human), UniProt O60502); assay: Cellular OGA-Tau MSD Assay; format: cell-based; conditions: HEK-293T cells, Tau-S400-GlcNAc MSD readout
OGA (S400 O-GLCNAC), HEK-293T cells transfected with Tau-V5, sequence (O60502 whole entry): as above
In short: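 HEK-293T cells transfected with OGA and Tau-V5 plasmids were treated overnight at 37° C with a 10-point, 3-fold titration from 1 uM. Lysates went onto V5-antibody MSD plates to capture Tau, probed with a Tau O-GlcNAc antibody and read by electrochemiluminescence; IC50 from a 4-parameter fit.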

[4] = Rat Liver Microsome Stability Assay; format: in vitro ADME; conditions: rat liver microsomes, 1 uM compound
P-gp (MDR1) = assay: MDR1-MDCK Efflux Ratio Assay; format: in vitro ADME; conditions: dog, MDCK-MDR1, pH 7.4, MDR1-MDCK cells, 2 hr, pH 7.4; read-out: MDR1-MDCK Efflux Ratio (B-A/A-B)
In short: as §1

MDR1-MDCK Efflux Ratio (B-A/A-B) [1] | IC50 [2] | IC50 [3] | RLM % Qh (%) [4] | efflux ratio at 2 h (P-gp (MDR1)) | Molecule
2.3 | < 1 nM | 1 nM | 39% |  | N-(4-fluoro-5-(((2S,4R)-4-((6-methoxypyrimidin-4-yl-4,5,6-^13C3)oxy)-2 methylpyrrolidin-1-yl)methyl)thiazol-2-yl)acetamide [Example 1-153]
 | < 1 nM | 2 nM | 74% | 2.4 | COc1cnc(O[C@@H]2C[C@H](C)N(Cc3sc(NC(C)=O)nc3F)C2)cn1 [Example 1-105, N-(4-fluoro-5-(((2S,4R)-4-((5-methoxypyrazin-2-yl)oxy)-2-methylpyrrolidin-1-yl)methyl)thiazol-2-yl)acetamide]
 | < 1 nM | 10 nM | 34% | 18.9 | CC(=O)Nc1nc(F)c(CN2CC[C@@H](Oc3cc(C)nc(C)c3)C2)s1 [Example 1-49, (R)—N-(5-((3-((2,6-dimethylpyridin-4-yl)oxy)pyrrolidin-1-yl)methyl)-4-fluorothiazol-2-yl)acetamide]
 | 55 nM | 30 nM | 57% | 4.5 | COc1cc(O[C@H]2C[C@H](C)N(Cc3cnc(NC(C)=O)s3)C2)ncn1 [Example 1-39, N-(5-(((2S,4S)-4-((6-methoxypyrimidin-4-yl)oxy)-2-methylpyrrolidin-1-yl)methyl)thiazol-2-yl)acetamide]
 | < 1 nM | 2 nM | 27% | 4.3 | [2H]C([2H])([2H])Oc1cc(O[C@@H]2C[C@H](C)N(Cc3cnc(NC(C)=O)s3)C2)ncn1 (single isomer, unassigned) [Example 1-154]
 | 24 nM | 29 nM | 80% | 4.3 | COc1cc(O[C@H]2CCCN(Cc3cnc(NC(C)=O)s3)C2)ncn1 [Example 1-41, (S)—N-(5-((3-((6-methoxypyrimidin-4-yl)oxy)piperidin-1-yl)methyl)thiazol-2-yl)acetamide]
 | < 1 nM | 4 nM | 43% | 8.4 | CC(=O)Nc1nc(F)c(CN2C[C@H](Oc3cc(OC4COC4)ncn3)C[C@@H]2C)s1 [Example 1-140, N-(4-fluoro-5-(((2S,4R)-2-methyl-4-((6-(oxetan-3-yloxy)pyrimidin-4-yl)oxy)pyrrolidin-1-yl)methyl)thiazol-2-yl)acetamide]
 | < 1 nM | 2 nM | 58% | 6.7 | COc1nc(C)cc(O[C@@H]2C[C@H](C)N(Cc3cnc(NC(C)=O)s3)C2)n1 [Example 1-75, N-(5-(((2S,4R)-4-((2-methoxy-6-methylpyrimidin-4-yl)oxy)-2-methylpyrrolidin-1-yl)methyl)thiazol-2-yl)acetamide]
 | < 1 nM | 2 nM | 59% | 8.3 | CC(=O)Nc1nc(F)c(CN2C[C@H](Oc3cnc(N4CCOCC4)cn3)C[C@@H]2C)s1 [Example 1-142, N-(4-fluoro-5-(((2S,4R)-2-methyl-4-((5-morpholinopyrazin-2-yl)oxy)pyrrolidin-1-yl)methyl)thiazol-2-yl)acetamide]
 | 2.6 nM | 25 nM | 65% | 6 | CC(=O)Nc1ncc(CN2C[C@H](Oc3cc(C(C)=O)ncn3)C[C@@H]2C)s1 [Example 1-76]
 | 11 nM | 70 nM | 78% | 25.4 | CC(=O)Nc1nc(F)c(CN2CCC[C@H](Oc3cc(C)nc(C)c3)C2)s1 [Example 1-54, (S)—N-(5-((3-((2,6-dimethylpyridin-4-yl)oxy)piperidin-1-yl)methyl)-4-fluorothiazol-2-yl)acetamide]
 | 26 nM | 89 nM | 32% | 65 | CC(=O)Nc1ncc(CN2C[C@@H](Oc3cc(C)nc(C)c3)C[C@@H]2C)s1 [Example 1-62, N-(5-(((2S,4S)-4-((2,6-dimethylpyridin-4-yl)oxy)-2-methylpyrrolidin-1-yl)methyl)thiazol-2-yl)acetamide]
 | < 1 nM | 19 nM | 35% | 6.2 | [2H]c1nc(NC(C)=O)sc1CN1C[C@H](Oc2cc(OC)ncn2)C[C@@H]1C (single isomer, unassigned) [Example 1-162]
 | 2 nM | 24 nM | 51% | 23.3 | CC(=O)Nc1nc(F)c(CN2C[C@H](Oc3cc(C)nc(C)c3)C[C@H]2C)s1 (stereo in doubt) [Example 1-51, N-(5-(((2R,4R)-4-((2,6-dimethylpyridin-4-yl)oxy)-2-methylpyrrololidin-1-yl)methyl)-4-fluorothiazol-2-yl)acetamide]
 | 2.4 nM | 6 nM | 47% | 4.1 | CC(=O)Nc1ncc(CN2C[C@H](Oc3cc(F)ncn3)C[C@@H]2C)s1 [Example 1-78, N-(5-(((2S,4R)-4-((6-fluoropyrimidin-4-yl)oxy)-2-methylpyrrolidin-1-yl)methyl)thiazol-2-yl)acetamide]
 | 9.7 nM | 35 nM | 49% | 3.8 | [2H][C@]1(Oc2cc(OC)ncn2)C[C@H](C)N(Cc2cnc(NC(C)=O)s2)C1 [Example 1-164, N-(5-(((2S,4S)-4-((6-methoxypyrimidin-4-yl)oxy)-2-methylpyrrolidin-1-yl-4-d)methyl)thiazol-2-yl)acetamide]
 | < 1 nM | 3 nM | 29% | 4.6 | [2H]C([2H])(c1cnc(NC(C)=O)s1)N1C[C@H](Oc2cc(OC)ncn2)C[C@@H]1C (single isomer, unassigned) [Example 1-160]

Molecule | MDR1-MDCK Efflux Ratio (B-A/A-B) [1] | IC50 [2] | IC50 [3] | RLM % Qh (%) [4] | efflux ratio at 2 h (P-gp (MDR1))
CO[C@H]1C[C@@H](Oc2cc(O[C@@H]3C[C@H](C)N(Cc4cnc(NC(C)=O)s4)C3)ncn2)C1 [Example 1-123, N-(5-(((2S,4R)-4-((6-((1s,3S)-3-methoxycyclobutoxy)pyrimidin-4-yl)oxy)-2-methylpyrrolidin-1-yl)methyl)thiazol-2-yl)acetamide] |  | 1.1 nM | 5 nM | 55% | 5.7
CC(=O)Nc1ncc(CN2C[C@H](Oc3ccnc(C)c3)C[C@@H]2C)s1 [Example 1-82, N-(5-(((2S,4R)-2-methyl-4-((2-methylpyridin-4-yl)oxy)pyrrolidin-1-yl)methyl)thiazol-2-yl)acetamide] |  | < 1 nM | 2 nM | 38% | 16.7
